# In publication PMC8213057, “Targeting ALK2: An Open Science Approach to Developing Therapeutics for the Treatment of Diffuse Intrinsic Pontine Glioma” (Journal of Medicinal Chemistry, 2020):
# Columns and labels:
# NEK9 = biological target: T1, NEK9 (Homo sapiens, UniProt Q8TD19); details: 1 μM; Run 1, Run 2
# T1 sequence (Q8TD19 1-979): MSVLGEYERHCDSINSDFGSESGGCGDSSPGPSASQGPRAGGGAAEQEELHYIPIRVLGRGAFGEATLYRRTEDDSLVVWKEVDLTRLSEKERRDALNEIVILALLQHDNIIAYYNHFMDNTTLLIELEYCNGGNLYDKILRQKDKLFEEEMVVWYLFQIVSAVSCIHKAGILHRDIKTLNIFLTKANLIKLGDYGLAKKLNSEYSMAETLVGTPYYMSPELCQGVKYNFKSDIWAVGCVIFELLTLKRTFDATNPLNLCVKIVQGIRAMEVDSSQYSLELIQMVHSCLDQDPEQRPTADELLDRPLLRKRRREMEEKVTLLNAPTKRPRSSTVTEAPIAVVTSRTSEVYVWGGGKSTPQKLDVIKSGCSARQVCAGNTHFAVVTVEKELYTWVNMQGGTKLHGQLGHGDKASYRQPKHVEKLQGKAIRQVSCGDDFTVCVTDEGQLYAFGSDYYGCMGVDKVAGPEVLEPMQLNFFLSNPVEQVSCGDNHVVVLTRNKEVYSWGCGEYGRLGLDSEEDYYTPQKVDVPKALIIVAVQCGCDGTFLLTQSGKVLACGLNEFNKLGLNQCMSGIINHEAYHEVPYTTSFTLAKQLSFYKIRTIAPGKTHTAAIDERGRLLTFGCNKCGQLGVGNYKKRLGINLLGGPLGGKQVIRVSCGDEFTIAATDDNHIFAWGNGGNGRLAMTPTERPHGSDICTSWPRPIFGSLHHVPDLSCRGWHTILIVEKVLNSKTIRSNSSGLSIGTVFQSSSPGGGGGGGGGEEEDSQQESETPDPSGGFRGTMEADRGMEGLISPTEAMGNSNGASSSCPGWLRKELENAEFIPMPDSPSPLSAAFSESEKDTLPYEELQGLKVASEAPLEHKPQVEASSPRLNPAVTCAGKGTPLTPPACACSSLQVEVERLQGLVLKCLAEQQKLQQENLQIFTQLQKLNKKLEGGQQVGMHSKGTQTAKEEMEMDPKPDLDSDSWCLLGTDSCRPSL
# DYRK2 = biological target: T2, DYRK2 (Homo sapiens, UniProt Q92630); assay: biochemical; details: read-out: % enzyme activity, 1 μM; Run 1, Run 2
# T2 sequence (Q92630 1-601): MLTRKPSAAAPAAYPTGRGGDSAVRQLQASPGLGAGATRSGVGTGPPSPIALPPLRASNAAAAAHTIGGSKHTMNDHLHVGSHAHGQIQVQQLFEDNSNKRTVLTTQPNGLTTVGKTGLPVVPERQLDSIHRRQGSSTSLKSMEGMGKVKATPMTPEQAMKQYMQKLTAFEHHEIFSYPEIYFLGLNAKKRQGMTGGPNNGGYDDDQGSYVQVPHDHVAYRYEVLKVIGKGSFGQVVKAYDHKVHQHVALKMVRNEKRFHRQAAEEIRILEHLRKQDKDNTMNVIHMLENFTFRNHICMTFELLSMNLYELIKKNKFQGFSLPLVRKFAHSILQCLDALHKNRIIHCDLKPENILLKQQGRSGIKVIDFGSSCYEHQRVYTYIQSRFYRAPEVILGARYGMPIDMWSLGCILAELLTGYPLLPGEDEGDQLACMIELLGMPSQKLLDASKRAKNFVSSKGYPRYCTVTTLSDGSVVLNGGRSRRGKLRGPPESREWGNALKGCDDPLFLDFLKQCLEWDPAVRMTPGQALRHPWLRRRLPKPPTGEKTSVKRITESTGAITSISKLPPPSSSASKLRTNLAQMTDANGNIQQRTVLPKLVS
# TXK = biological target: T3, TXK (Homo sapiens, UniProt P42681); assay: biochemical; details: read-out: % enzyme activity, 1 μM; Run 1, Run 2
# T3 sequence (P42681 1-527): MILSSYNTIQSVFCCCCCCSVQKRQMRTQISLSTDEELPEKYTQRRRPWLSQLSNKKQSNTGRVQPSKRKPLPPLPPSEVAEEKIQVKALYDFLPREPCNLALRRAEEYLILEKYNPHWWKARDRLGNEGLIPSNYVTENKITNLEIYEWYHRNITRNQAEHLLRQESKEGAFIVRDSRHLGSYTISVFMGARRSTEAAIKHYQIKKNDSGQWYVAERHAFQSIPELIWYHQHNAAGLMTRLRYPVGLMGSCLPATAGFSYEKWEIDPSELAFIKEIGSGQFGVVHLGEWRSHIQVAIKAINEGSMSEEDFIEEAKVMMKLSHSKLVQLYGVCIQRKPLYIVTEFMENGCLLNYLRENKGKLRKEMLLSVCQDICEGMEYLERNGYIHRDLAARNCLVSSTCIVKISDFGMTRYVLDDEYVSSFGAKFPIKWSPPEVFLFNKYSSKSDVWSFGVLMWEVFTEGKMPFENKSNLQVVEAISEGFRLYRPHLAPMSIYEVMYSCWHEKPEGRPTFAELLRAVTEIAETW
# PKCiota = biological target: T4, PKCiota (Homo sapiens, UniProt P41743); details: 1 μM; Run 1, Run 2
# T4 sequence (P41743 1-596): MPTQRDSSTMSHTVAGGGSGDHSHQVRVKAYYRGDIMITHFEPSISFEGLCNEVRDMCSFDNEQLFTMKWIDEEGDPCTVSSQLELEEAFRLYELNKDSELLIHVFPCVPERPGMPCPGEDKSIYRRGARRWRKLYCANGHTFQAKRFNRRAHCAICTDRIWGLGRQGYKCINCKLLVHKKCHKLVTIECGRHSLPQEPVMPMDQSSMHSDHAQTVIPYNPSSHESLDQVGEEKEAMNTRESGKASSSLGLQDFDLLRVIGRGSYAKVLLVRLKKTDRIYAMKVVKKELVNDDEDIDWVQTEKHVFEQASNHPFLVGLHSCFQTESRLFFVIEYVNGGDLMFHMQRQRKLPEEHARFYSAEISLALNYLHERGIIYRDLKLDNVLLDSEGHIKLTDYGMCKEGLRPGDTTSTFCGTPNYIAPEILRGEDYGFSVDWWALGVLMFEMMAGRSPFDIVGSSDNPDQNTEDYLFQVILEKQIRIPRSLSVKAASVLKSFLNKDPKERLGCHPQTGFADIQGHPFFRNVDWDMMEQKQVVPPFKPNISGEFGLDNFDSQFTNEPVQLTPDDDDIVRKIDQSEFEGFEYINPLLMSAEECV
SMILES,% enzyme activity (NEK9) [%],remaining activity at 1 µM (DYRK2) [%],remaining activity at 1 µM (TXK) [%],% enzyme activity (PKCiota) [%]
"COc1cc(-c2cncc(-c3ccc(N4CCN(C)CC4)cc3)c2C)cc(F)c1C(N)=O [Compound 26a, 2-Fluoro-6-methoxy-4-(4-methyl-5-(4-(4-methylpiperazin-1-yl)phenyl)pyridin-3-yl)benzamide]",91.72,96.3,101,100.36
"COc1cc(-c2cncc(-c3ccc(N4C[C@@H](C)N(C)[C@@H](C)C4)cc3)c2C)cc(F)c1C(N)=O [Compound 26c, 2-Fluoro-6-methoxy-4-(4-methyl-5-(4-((3R,5S)-3,4,5-trimethylpiperazin-1-yl)phenyl)pyridin-3-yl)benzamide]",93.51,100,98.2,98.91
